System: neuromuscular block, induced by the muscle relaxant rocuronium bromide (Roc)
Assay: Reversal of neuromuscular blockade in anaesthetized guinea pigs in vivo
Details: for concentration at maximum reversal (at conc.) / % max reversal: anaesthetized guinea pigs, rocuronium bromide steady-state block; for concentration at maximum reversal (at conc.): dose of reversal agent at which % max reversal was seen; for % max reversal: maximum reversal; for ED50: dose producing 50% reversal of steady-state neuromuscular block: anaesthetized male Dunkin-Hartley guinea pigs, steady-state block of 85-90% by continuous rocuronium bromide infusion, reversal agent given by jugular vein catheter, M. gastrocnemius contractions
Method: Reversal of Neuromuscular Blockade in Anaesthetized Guinea Pigs in vivo
Male Dunkin-Hartley guinea pigs (bodyweight: 600-900 g) were anaesthetized by i.p. administration of 10 mg/kg pentobarbitone and 1000 mg/kg urethane. After tracheotomy, the animals were artificially ventilated using a Harvard small animal ventilator. A catheter was placed into the carotid artery for continuous monitoring of arterial blood pressure and the taking of blood samples for blood gas analysis. Heart rate was derived from the blood pressure signal. The sciatic nerve was stimulated (rectangular pulses of 0.5 ms duration at 10 s (0.1 Hz) intervals at a supramaximal voltage, using a Grass S88 Stimulator) and the force of M. gastrocnemius contractions was measured using a Grass FT03 force-displacement transducer. Contractions, blood pressure and heart rate were recorded on a multichannel Grass 7D recorder. Catheters were placed in both jugular veins. One catheter was used for the continuous infusion of a neuromuscular blocking agent. The infusion rate of the neuromuscular blocking agent was increased until a steady-state block of 85-90% was obtained. The other catheter was used for administration of increasing doses of the reversal agent. During continuous infusion of the neuromuscular blocking agent, single doses of increasing concentration of reversal agent were given. At the end of the experiment, the measured force of muscle contractions was plotted against the concentration of reversal agent, and using regression analysis techniques, the 50% reversal concentration was calculated. Results for the reversal of the neuromuscular block, induced by the muscle relaxant rocuronium bromide (Roc), by the 6-mercapto-cyclodextrin derivatives of Examples 1-19 are presented in Table I. For comparison, the reversal activity of the parent compounds β-cyclodextrin and γ-cyclodextrin are included as well.

Row | Compound | concentration at maximum reversal (at conc.) | % max reversal | ED50: dose producing 50% reversal of steady-state neuromuscular block
1 | OC[C@H]1O[C@@H]2O[C@H]3[C@H](O)[C@@H](O)[C@@H](O[C@H]4[C@H](O)[C@@H](O)[C@@H](O[C@H]5[C@H](O)[C@@H](O)[C@@H](O[C@H]6[C@H](O)[C@@H](O)[C@@H](O[C@H]7[C@H](O)[C@@H](O)[C@@H](O[C@H]8[C@H](O)[C@@H](O)[C@@H](O[C@H]9[C@H](O)[C@@H](O)[C@@H](O[C@H]1[C@H](O)[C@H]2O)O[C@@H]9CO)O[C@@H]8CO)O[C@@H]7CO)O[C@@H]6CO)O[C@@H]5CO)O[C@@H]4CO)O[C@@H]3CO [γ-cyclodextrin, reference compound] | (47) μmol · kg^−1 | 104% | 4 µmol/kg
2 | OC[C@H]1O[C@@H]2O[C@H]3[C@H](O)[C@@H](O)[C@@H](O[C@H]4[C@H](O)[C@@H](O)[C@@H](O[C@H]5[C@H](O)[C@@H](O)[C@@H](O[C@H]6[C@H](O)[C@@H](O)[C@@H](O[C@H]7[C@H](O)[C@@H](O)[C@@H](O[C@H]8[C@H](O)[C@@H](O)[C@@H](O[C@H]1[C@H](O)[C@H]2O)O[C@@H]8CO)O[C@@H]7CO)O[C@@H]6CO)O[C@@H]5CO)O[C@@H]4CO)O[C@@H]3CO [β-cyclodextrin, reference compound] | (113) μmol · kg^−1 | 93% | 20 µmol/kg
3 | OCC(CO)(CO)CSCC1OC2OC3C(CSCC(CO)(CO)CO)OC(OC4C(CSCC(CO)(CO)CO)OC(OC5C(CSCC(CO)(CO)CO)OC(OC6C(CSCC(CO)(CO)CO)OC(OC7C(CSCC(CO)(CO)CO)OC(OC8C(CSCC(CO)(CO)CO)OC(OC9C(CSCC(CO)(CO)CO)OC(OC1C(O)C2O)C(O)C9O)C(O)C8O)C(O)C7O)C(O)C6O)C(O)C5O)C(O)C4O)C(O)C3O (stereo not drawn) [example 18, 6-Per-deoxy-6-per(2,2-di(hydroxymethyl)-3-hydroxy-propyl)thio-γ-cyclodextin] | (4.9) μmol · kg^−1 | 63% | 2.9 µmol/kg
4 | O=C([O-])CCCSC[C@H]1O[C@@H]2O[C@H]3[C@H](O)[C@@H](O)[C@@H](O[C@H]4[C@H](O)[C@@H](O)[C@@H](O[C@H]5[C@H](O)[C@@H](O)[C@@H](O[C@H]6[C@H](O)[C@@H](O)[C@@H](O[C@H]7[C@H](O)[C@@H](O)[C@@H](O[C@H]8[C@H](O)[C@@H](O)[C@@H](O[C@H]9[C@H](O)[C@@H](O)[C@@H](O[C@H]1[C@H](O)[C@H]2O)O[C@@H]9CSCCCC(=O)[O-])O[C@@H]8CSCCCC(=O)[O-])O[C@@H]7CSCCCC(=O)[O-])O[C@@H]6CSCCCC(=O)[O-])O[C@@H]5CSCCCC(=O)[O-])O[C@@H]4CSCCCC(=O)[O-])O[C@@H]3CSCCCC(=O)[O-].[Na+].[Na+].[Na+].[Na+].[Na+].[Na+].[Na+].[Na+] [example 6, 6-Per-deoxy-6-per-(3carboxypropyl)thio-γ-cyclodextrin, Sodium Salt] | (0.48) μmol · kg^−1 | 108% | 0.09 µmol/kg
5 | OC1C2OC(CSCCCc3nnn[n-]3)C(OC3OC(CSCCCc4nnn[n-]4)C(OC4OC(CSCCCc5nnn[n-]5)C(OC5OC(CSCCCc6nnn[n-]6)C(OC6OC(CSCCCc7nnn[n-]7)C(OC7OC(CSCCCc8nnn[n-]8)C(OC8OC(CSCCCc9nnn[n-]9)C(OC9OC(CSCCCc%10nnn[n-]%10)C(O2)C(O)C9O)C(O)C8O)C(O)C7O)C(O)C6O)C(O)C5O)C(O)C4O)C(O)C3O)C1O.[Na+].[Na+].[Na+].[Na+].[Na+].[Na+].[Na+].[Na+] (stereo not drawn) [example 19, 6-Per-deoxy-6-per(3-(tetrazol-5-yl)propyl)thio-γ-cyclodextrin, Sodium Salt] | (1.2) μmol · kg^−1 | 109% | 0.22 µmol/kg
6 | O=C([O-])c1ccccc1SC[C@H]1O[C@@H]2O[C@H]3[C@H](O)[C@@H](O)[C@@H](O[C@H]4[C@H](O)[C@@H](O)[C@@H](O[C@H]5[C@H](O)[C@@H](O)[C@@H](O[C@H]6[C@H](O)[C@@H](O)[C@@H](O[C@H]7[C@H](O)[C@@H](O)[C@@H](O[C@H]8[C@H](O)[C@@H](O)[C@@H](O[C@H]9[C@H](O)[C@@H](O)[C@@H](O[C@H]1[C@H](O)[C@H]2O)O[C@@H]9CO)O[C@@H]8CO)O[C@@H]7CO)O[C@@H]6CO)O[C@@H]5CO)O[C@@H]4CO)O[C@@H]3CO.[Na+] [example 2, 6mono-Deoxy-6-mono-(2-carboxyphenyl)thio-γ-cyclodextin, Sodium Salt] | (11) μmol · kg^−1 | 93% | 1.30 µmol/kg
7 | O=S(=O)([O-])CCSCC1OC2OC3C(CSCCS(=O)(=O)[O-])OC(OC4C(CSCCS(=O)(=O)[O-])OC(OC5C(CSCCS(=O)(=O)[O-])OC(OC6C(CSCCS(=O)(=O)[O-])OC(OC7C(CSCCS(=O)(=O)[O-])OC(OC8C(CSCCS(=O)(=O)[O-])OC(OC9C(CSCCS(=O)(=O)[O-])OC(OC1C(O)C2O)C(O)C9O)C(O)C8O)C(O)C7O)C(O)C6O)C(O)C5O)C(O)C4O)C(O)C3O.[Na+].[Na+].[Na+].[Na+].[Na+].[Na+].[Na+].[Na+] (stereo not drawn) [example 17, 6-Per-deoxy-6-per(2-sulfoethyl)thio-γ-cyclodextrin, Sodium Salt] | (1.7) μmol · kg^−1 | 106% | 0.055 µmol/kg
8 | OCCOCCSCC1OC2OC3C(CSCCOCCO)OC(OC4C(CSCCOCCO)OC(OC5C(CSCCOCCO)OC(OC6C(CSCCOCCO)OC(OC7C(CSCCOCCO)OC(OC8C(CSCCOCCO)OC(OC9C(CSCCOCCO)OC(OC1C(O)C2O)C(O)C9O)C(O)C8O)C(O)C7O)C(O)C6O)C(O)C5O)C(O)C4O)C(O)C3O (stereo not drawn) [example 11, 6-Per-deoxy-6-per(5-hydroxy-3-oxa-pentyl)thio-γ-cyclodextrin] | (2.1) μmol · kg^−1 | 92% | 0.47 µmol/kg
9 | O=C([O-])c1ccccc1C(=O)NCCSC[C@H]1O[C@@H]2O[C@H]3[C@H](O)[C@@H](O)[C@@H](O[C@H]4[C@H](O)[C@@H](O)[C@@H](O[C@H]5[C@H](O)[C@@H](O)[C@@H](O[C@H]6[C@H](O)[C@@H](O)[C@@H](O[C@H]7[C@H](O)[C@@H](O)[C@@H](O[C@H]8[C@H](O)[C@@H](O)[C@@H](O[C@H]9[C@H](O)[C@@H](O)[C@@H](O[C@H]1[C@H](O)[C@H]2O)O[C@@H]9CSCCNC(=O)c1ccccc1C(=O)[O-])O[C@@H]8CSCCNC(=O)c1ccccc1C(=O)[O-])O[C@@H]7CSCCNC(=O)c1ccccc1C(=O)[O-])O[C@@H]6CSCCNC(=O)c1ccccc1C(=O)[O-])O[C@@H]5CSCCNC(=O)c1ccccc1C(=O)[O-])O[C@@H]4CSCCNC(=O)c1ccccc1C(=O)[O-])O[C@@H]3CSCCNC(=O)c1ccccc1C(=O)[O-].[Na+].[Na+].[Na+].[Na+].[Na+].[Na+].[Na+].[Na+] [example 12, 6-Per-deoxy-6-per[(2(2-carboxybenzoyl)amino)ethyl]thio-γ-cyclodextrin, Sodium Salt] | (0.48) μmol · kg^−1 | 95% | 0.085 µmol/kg
10 | NC(=O)CCCSCC1OC2OC3C(CSCCCC(N)=O)OC(OC4C(CSCCCC(N)=O)OC(OC5C(CSCCCC(N)=O)OC(OC6C(CSCCCC(N)=O)OC(OC7C(CSCCCC(N)=O)OC(OC8C(CSCCCC(N)=O)OC(OC9C(CSCCCC(N)=O)OC(OC1C(O)C2O)C(O)C9O)C(O)C8O)C(O)C7O)C(O)C6O)C(O)C5O)C(O)C4O)C(O)C3O (stereo not drawn) [example 10, 6-Per-deoxy-6-per(3-amidopropyl)thio-γ-cyclodextrin] | (33) μmol · kg^−1 | 94% | 0.57 µmol/kg
11 | O=C([O-])c1ccc(SC[C@H]2O[C@@H]3O[C@H]4[C@H](O)[C@@H](O)[C@@H](O[C@H]5[C@H](O)[C@@H](O)[C@@H](O[C@H]6[C@H](O)[C@@H](O)[C@@H](O[C@H]7[C@H](O)[C@@H](O)[C@@H](O[C@H]8[C@H](O)[C@@H](O)[C@@H](O[C@H]9[C@H](O)[C@@H](O)[C@@H](O[C@H]%10[C@H](O)[C@@H](O)[C@@H](O[C@H]2[C@H](O)[C@H]3O)O[C@@H]%10CSc2ccc(C(=O)[O-])cc2)O[C@@H]9CSc2ccc(C(=O)[O-])cc2)O[C@@H]8CSc2ccc(C(=O)[O-])cc2)O[C@@H]7CSc2ccc(C(=O)[O-])cc2)O[C@@H]6CSc2ccc(C(=O)[O-])cc2)O[C@@H]5CSc2ccc(C(=O)[O-])cc2)O[C@@H]4CSc2ccc(C(=O)[O-])cc2)cc1.[Na+].[Na+].[Na+].[Na+].[Na+].[Na+].[Na+].[Na+] [example 8, 6-Per-deoxy-6-per-(4-carboxyphenyl)thio-γ-cyclodextrin, Sodium Salt] | (0.48) μmol · kg^−1 | 95% | 0.10 µmol/kg
